Test results as given in ChEMBL document CHEMBL1201862, “PubChem BioAssay data set” (2004).
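Compound exposure: 48 hours, 5 concentrations, 96-well plates. GI50: concentration for 50% inhibition of growth.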 The source made the active and inactive calls. Rule as the data show it: active = GI50 up to about 1.1 µM and inactive = higher. Peptide text beside a SMILES is read from it. * marks the point of attachment. Boc = CC(C)(C)OC(=O)*

Experiments:
Assay in all cases: NCI anticancer screen, dose series, 48 h
CCRF-CEM = system: CCRF-CEM
SNB-19 = system: SNB-19
HT-29 = system: HT-29
TK-10 = system: TK-10
COLO 205 = system: COLO 205
OVCAR-4 = system: OVCAR-4
NCI-H522 = system: NCI-H522
SF-268 = system: SF-268
SF-539 = system: SF-539
UACC-62 = system: UACC-62
UACC-257 = system: UACC-257
MDA-MB-435 = system: MDA-MB-435
T47D = system: T47D
Malme-3M = system: Malme-3M
HCT-15 = system: HCT-15
A498 = system: A498
HOP-62 = system: HOP-62
HOP-92 = system: HOP-92
MOLT-4 = system: MOLT-4
MDA-MB-231 = system: MDA-MB-231
M14 = system: M14
KM12 = system: KM12
OVCAR-8 = system: OVCAR-8
NCI-H226 = system: NCI-H226
SK-OV-3 = system: SK-OV-3
SK-MEL-28 = system: SK-MEL-28
ACHN = system: ACHN
HCC 2998 = system: HCC 2998
SK-MEL-5 = system: SK-MEL-5
OVCAR-3 = system: OVCAR-3
K562 = system: K562
Hs-578T = system: Hs-578T
NCI-H460 = system: NCI-H460
HCT-116 = system: HCT-116
RXF 393 = system: RXF 393
A549 = system: A549
UO-31 = system: UO-31
SN12C = system: SN12C
HL-60 = system: HL-60
NCI-H23 = system: NCI-H23
PC-3 = system: PC-3
SNB-75 = system: SNB-75
786-0 = system: 786-0
LOX IMVI = system: LOX IMVI
CAKI-1 = system: CAKI-1
SK-MEL-2 = system: SK-MEL-2
SF-295 = system: SF-295
U-251 = system: U-251
MCF7 = system: MCF7
IGROV-1 = system: IGROV-1
MDA-N = system: MDA-N
NCI/ADR-RES = system: NCI/ADR-RES
DU-145 = system: DU-145
RPMI-8226 = system: RPMI-8226
SW-620 = system: SW-620
SR = system: SR
OVCAR-5 = system: OVCAR-5
EKVX = system: EKVX
BT-549 = system: BT-549

Measured: GI50

COc1ccc2c(c1)C1=NCCN(CCO)c3ccc([N+](=O)[O-])c(c31)N2
0.75 µM: HCT-15
inactive: NCI/ADR-RES 1.23 µM
active: CCRF-CEM 0.18 µM | SNB-19 0.59 µM | HT-29 0.324 µM | TK-10 0.63 µM | COLO 205 0.298 µM | OVCAR-4 0.54 µM | NCI-H522 0.264 µM | SF-268 0.752 µM | SF-539 0.415 µM | UACC-62 0.422 µM | UACC-257 0.581 µM | MDA-MB-435 0.493 µM | T47D 0.532 µM | Malme-3M 0.35 µM | A498 0.798 µM | HOP-62 0.462 µM | HOP-92 0.395 µM | MOLT-4 0.0755 µM | MDA-MB-231 0.468 µM | M14 0.407 µM | KM12 0.505 µM | OVCAR-8 0.201 µM | NCI-H226 0.331 µM | SK-OV-3 0.574 µM | SK-MEL-28 0.624 µM | ACHN 0.348 µM | HCC 2998 0.574 µM | SK-MEL-5 0.366 µM | OVCAR-3 0.785 µM | K562 0.222 µM | Hs-578T 0.693 µM | NCI-H460 0.274 µM | HCT-116 0.232 µM | RXF 393 0.494 µM | A549 0.427 µM | UO-31 0.265 µM | SN12C 0.429 µM | HL-60 0.34 µM | NCI-H23 0.652 µM | PC-3 0.34 µM | SNB-75 0.578 µM | 786-0 0.22 µM | LOX IMVI 0.127 µM | CAKI-1 0.366 µM | SK-MEL-2 0.587 µM | SF-295 0.454 µM | U-251 0.506 µM | MCF7 0.42 µM | IGROV-1 0.519 µM | MDA-N 0.431 µM | DU-145 1.02 µM | RPMI-8226 0.29 µM | SW-620 0.187 µM | SR 0.0368 µM | OVCAR-5 0.728 µM | EKVX 0.705 µM

COC(=O)C(Cc1c[nH]c2ccccc12)NC(=O)C(Cc1c[nH]c2ccccc12)NC(=O)C(Cc1c[nH]c2ccccc12)NC(=O)C(Cc1c[nH]c2ccccc12)NC(=O)C(Cc1c[nH]c2ccccc12)NC(=O)OC(C)(C)C (stereo not given) (Boc-WWWWW-OMe; configuration not given here)
> 100 µM: HCT-15
inactive: CCRF-CEM 74 µM | SNB-19 39 µM | HT-29 > 100 µM | TK-10 > 100 µM | OVCAR-4 > 100 µM | NCI-H522 46 µM | SF-268 71 µM | UACC-62 26.5 µM | UACC-257 > 100 µM | MDA-MB-435 > 100 µM | T47D 10.7 µM | Malme-3M 94.2 µM | HOP-62 > 100 µM | MOLT-4 19.6 µM | MDA-MB-231 > 100 µM | M14 33.3 µM | OVCAR-8 > 100 µM | NCI-H226 42 µM | SK-MEL-28 55.7 µM | ACHN 74 µM | HCC 2998 > 100 µM | BT-549 91.8 µM | SK-MEL-5 17.5 µM | OVCAR-3 > 100 µM | K562 36.8 µM | NCI-H460 84.1 µM | HCT-116 29.7 µM | A549 67 µM | UO-31 36.6 µM | SN12C > 100 µM | HL-60 33 µM | NCI-H23 58.1 µM | PC-3 > 100 µM | SNB-75 36.5 µM | 786-0 60 µM | LOX IMVI 67.6 µM | CAKI-1 > 100 µM | SK-MEL-2 45.2 µM | U-251 65.9 µM | MCF7 84.1 µM | IGROV-1 30 µM | MDA-N 92 µM | DU-145 33.4 µM | RPMI-8226 26.2 µM | SW-620 > 100 µM | SR 32.4 µM | OVCAR-5 > 100 µM

CC(C)CC(=O)O[C@H]1C(=O)O[C@@H]2C[C@H]3[C@H](C)C(=O)C(O[C@@H]4O[C@H](CO)[C@@H](O)[C@H](O)[C@H]4O)=C[C@]3(C)[C@H]3[C@@H](O)[C@H](O)[C@]4(C(=O)O)OC[C@]32[C@@H]14 [BRUCEOSIDE E]
inactive: TK-10 59.6 µM | UACC-62 60 µM | MDA-MB-435 61.2 µM | T47D 94.6 µM | M14 91.2 µM | KM12 70.1 µM | SK-OV-3 52.1 µM | BT-549 95.1 µM | UO-31 71.4 µM | NCI-H23 52.4 µM | PC-3 80.9 µM | SNB-75 78 µM | MDA-N 82 µM | OVCAR-5 94 µM
